Test results: patent publication US6489315B1, “Cyclic compounds, their production and use” (Takeda Chemical Industries, Ltd., priority 1995, dated 2002)

Row | SMILES | melting point [°C]
1 | CC1CCn2c(c(-c3ccccc3)c3cccnc3c2=O)C(=O)N(Cc2cc(C(F)(F)F)cc(C(F)(F)F)c2)C1 (racemic) [Example 15, (+/−)-7-[3,5-Bis(trifluoromethyl)benzyl]-6,7,8,9,10,11-hexahydro-9-methyl-6,13-dioxo-5-phenyl-13H-[1,4]diazocino[2,1-g][1,7]naphthyridine] | 257 to 258
2 | Cc1ccc(-c2c3n(c(=O)c4ncccc24)CCC(C)CN(Cc2cc(C(F)(F)F)cc(C(F)(F)F)c2)C3=O)cc1 (racemic) [Example 16, (+/−)-7-[3,5-Bis(trifluoromethyl)benzyl]-6,7,8,9,10,11-hexahydro-9-methyl-5-(4-methylphenyl)-6,13-dioxo-13H-[1,4]diazocino[2,1-g][1,7]naphthyridine] | 280 to 281
3 | Cc1ccc(-c2c3n(c(=O)c4ncccc24)CC(O)CN(Cc2cc(C(F)(F)F)cc(C(F)(F)F)c2)C3=O)cc1 (racemic) [Example 25, (+/−)-7-[3,5-Bis(trifluoromethyl)benzyl]-6,7,8,9,10,12-hexahydro-9-hydroxy-5-(4-methylphenyl)-6,12-dioxo[1,4]diazepino [2,1-g][1,7]naphthyridine] | 282 to 283
4 | Cc1ccc(-c2c3n(c(=O)c4ncccc24)CCN(Cc2cc(C(F)(F)F)cc(C(F)(F)F)c2)C3=O)cc1 [Example 1, 7-[3,5-Bis(trifluoromethyl)benzyl]-6,7,8,9-tetrahydro-5-(4-methylphenyl)-6,11-dioxo-11H-pyrazino[2,1-g][1,7]naphthyridine] | 270 to 271
5 | Cc1ccc(-c2c3n(c(=O)c4ncccc24)CCCN(Cc2cc(C(F)(F)F)cc(C(F)(F)F)c2)C3=O)cc1 [Example 2, 7-[3,5-Bis(trifluoromethyl)benzyl]-6,7,8,9,10,12-hexahydro-5-(4-methylphenyl)-6,12-dioxo[1,4]diazepino[2,1-g][1,7]naphthyridine] | 194 to 195
6 | O=C1c2c(-c3ccccc3)ccnc2OCCN1Cc1cc(C(F)(F)F)cc(C(F)(F)F)c1 [Example 11, 4-[3,5-Bis(trifluoromethyl)benzyl]-2,3,4,5-tetrahydro-5-oxo-6-phenylpyrido[3,2-f][1,4]oxazepine] | 200 to 201
7 | Cc1ccc(-c2c3n(c(=O)c4ncccc24)C[C@H](C)CN(Cc2cc(C(F)(F)F)cc(C(F)(F)F)c2)C3=O)cc1 [Example 12, (9R)-7-[3,5-Bis(trifluoromethyl)benzyl]-6,7,8,9,10,12-hexahydro-9-methyl-5-(4-methylphenyl)-6,12-dioxo[1,4]diazepino[2,1-g][1,7]naphthyridine] | 179 to 180
8 | C[C@H]1CN(Cc2cc(C(F)(F)F)cc(C(F)(F)F)c2)C(=O)c2c(-c3ccccc3)c3cccnc3c(=O)n2C1 [Example 13, (9S)-7-[3,5-Bis(trifluoromethyl)benzyl]-6,7,8,9,10,12-hexahydro-9-methyl-6,12-dioxo-5-phenyl[1,4]diazepino[2,1-g][1,7]naphthyridine] | 150 to 152
9 | Cc1ccc(-c2c3n(c(=O)c4ncccc24)C[C@@H](C)CN(Cc2cc(C(F)(F)F)cc(C(F)(F)F)c2)C3=O)cc1 [Example 14, (9S)-7-(3,5-Bis(trifluoromethyl)benzyl]-6,7,8,9,10,12-hexahydro-9-methyl-5-(4-methylphenyl)-6,12-dioxo[1,4]diazepino[2,1-g][1,7]naphthyridine] | 179 to 180
10 | C[C@@H]1CCn2c(c(-c3ccccc3)c3cccnc3c2=O)C(=O)N(Cc2cc(C(F)(F)F)cc(C(F)(F)F)c2)C1 [Example 17, (9R)-7-[3,5-Bis(trifluoromethyl)benzyl]-6,7,8,9,10,11-hexahydro-9-methyl-6,13-dioxo-5-phenyl-13H-[1,4]diazocino[2,1-g][1,7]naphthyridine] | 245 to 247
11 | Cc1ccc(-c2c3n(c(=O)c4ncccc24)CC[C@@H](C)CN(Cc2cc(C(F)(F)F)cc(C(F)(F)F)c2)C3=O)cc1 [Example 18, (9R)-7-[3,5-Bis(trifluoromethyl)benzyl]-6,7,8,9,10,11-hexahydro-9-methyl-5-(4-methylphenyl)-6,13-dioxo-13H-[1,4]diazocino[2,1-g][1,7]naphthyridine] | 226 to 228
12 | C[C@H]1CCn2c(c(-c3ccccc3)c3cccnc3c2=O)C(=O)N(Cc2cc(C(F)(F)F)cc(C(F)(F)F)c2)C1 [Example 19, (9S)-7-[3,5-Bis(trifluoromethyl)benzyl]-6,7,8,9,10,11-hexahydro-9-methyl-6,13-dioxo-5-phenyl-13H-[1,4]diazocino[2,1-g][1,7]naphthyridine] | 242 to 244
13 | Cc1ccc(-c2c3n(c(=O)c4ncccc24)CC[C@H](C)CN(Cc2cc(C(F)(F)F)cc(C(F)(F)F)c2)C3=O)cc1 [Example 20, (9S)-7-[3,5-Bis(trifluoromethyl)benzyl]-6,7,8,9,10,11-hexahydro-9-methyl-5-(4-methylphenyl)-6,13-dioxo-13H-[1,4]diazocino[2,1-g][1,7]naphthyridine] | 227 to 228
14 | O=C1c2c(-c3ccccc3)ccnc2NCCN1Cc1cc(C(F)(F)F)cc(C(F)(F)F)c1 [Example 21, 4-[3,5-Bis(trifluoromethyl)benzyl]-2,3,4,5-tetrahydro-5-oxo-6-phenyl-1H-pyrido[2,3-e][1,4]diazepine] | 242 to 243
15 | O=C1c2c(-c3ccccc3)ccnc2OCCCN1Cc1cc(C(F)(F)F)cc(C(F)(F)F)c1 [Example 22, 5-[3,5-Bis(trifluoromethyl)benzyl]-2,3,4,5-tetrahydro-6-oxo-7-phenyl-6H-pyrido(2,3-b)[1,5]oxazocine] | 188 to 189
16 | Cc1cnc2c(c1-c1ccccc1)C(=O)N(Cc1cc(C(F)(F)F)cc(C(F)(F)F)c1)C[C@@H](C)CO2 [Example 32, (R)-5-[3,5-Bis(trifluoromethyl)benzyl]-2,3,4,5-tetrahydro-3,8-dimethyl-6-oxo-7-phenyl-6H-pyrido[2,3-b][1,5]oxazocine] | 147 to 149
17 | Cc1cc(-c2ccccc2)c2c(n1)OCCN(Cc1cc(C(F)(F)F)cc(C(F)(F)F)c1)C2=O [Example 33, 4-[3,5-Bis(trifluoromethyl)benzyl)-2,3,4,5-tetrahydro-8-methyl-5-oxo-6-phenylpyrido[3,2-f][1,4]oxazepine] | 151 to 153
18 | Cc1cc(-c2ccccc2)c2c(n1)OCCCN(Cc1cc(C(F)(F)F)cc(C(F)(F)F)c1)C2=O [Example 34, 5-[3,5-Bis(trifluoromethyl)benzyl]-2,3,4,5-tetrahydro-9-methyl-6-oxo-7-phenyl-6H-pyrido[2,3-b][1,5]oxazocine] | 164 to 165
19 | Cc1cc(-c2ccccc2)c2c([n+]1[O-])OCCN(Cc1cc(C(F)(F)F)cc(C(F)(F)F)c1)C2=O [Example 35] | 181 to 183
20 | CC(=O)OCc1cc(-c2ccccc2)c2c(n1)OCCN(Cc1cc(C(F)(F)F)cc(C(F)(F)F)c1)C2=O [Example 37, 8-Acetoxymethyl-4-[3,5-bis(trifluoromethyl)benzyl]-2,3,4,5-tetrahydro-5-oxo-6-phenylpyrido(3,2-f][1,4]oxazepine] | 122 to 124
21 | CC(=O)OCc1cc(-c2ccccc2)c2c(n1)OCCCN(Cc1cc(C(F)(F)F)cc(C(F)(F)F)c1)C2=O [Example 38, 9-Acetoxymethyl-5-[3,5-bis(trifluoromethyl)benzyl]-2.3,4,5-tetrahydro-6-oxo-7-phenyl-6H-pyrido[2,3-b][1,5]oxazocine] | 156 to 157
22 | O=C1c2c(-c3ccccc3)cc(CCl)nc2OCCN1Cc1cc(C(F)(F)F)cc(C(F)(F)F)c1 [Example 39, 4-[3,5-Bis(trifluoromethyl)benzyl]-8-chloromethyl-2,3,4,5-tetrahydro-5-oxo-6-phenylpyrido[3,2-f][1,4]oxazepine] | 183 to 184
23 | COCc1cc(-c2ccccc2)c2c(n1)OCCN(Cc1cc(C(F)(F)F)cc(C(F)(F)F)c1)C2=O [Example 40, 4-[3,5-Bis(trifluoromethyl)benzyl]-2,3,4,5-tetrahydro-8-methoxymethyl-5-oxo-6-phenylpyrido[3,2-f][1,4]oxazepine] | 139 to 140
24 | CSCc1cc(-c2ccccc2)c2c(n1)OCCN(Cc1cc(C(F)(F)F)cc(C(F)(F)F)c1)C2=O [Example 42, 4-[3,5-Bis(trifluoromethyl)benzyl]-2,3,4,5-tetrahydro-8-methylthiomethyl-5-oxo-6-phenylpyrido[3,2-f][1,4]oxazepine] | 165 to 166
25 | NCc1cc(-c2ccccc2)c2c(n1)OCCN(Cc1cc(C(F)(F)F)cc(C(F)(F)F)c1)C2=O [Example 43, 8-Aminomethyl-4-[3,5-bis(trifluoromethyl)benzyl]-2,3,4,5-tetrahydro-5-oxo-6-phenylpyrido[3,2-f][1,4]oxazepine] | 188 to 191
26 | CNCc1cc(-c2ccccc2)c2c(n1)OCCN(Cc1cc(C(F)(F)F)cc(C(F)(F)F)c1)C2=O [Example 44, 4-[3,5-Bis(trifluoromethyl)benzyl]-2,3,4,5-tetrahydro-8-methylaminomethyl-5-oxo-6-phenylpyrido[3,2-f][1,4]oxazepine] | 152 to 154
27 | CN(C)Cc1cc(-c2ccccc2)c2c(n1)OCCN(Cc1cc(C(F)(F)F)cc(C(F)(F)F)c1)C2=O [Example 45, 4-[3,5-Bis(trifluoromethyl)benzyl]-8-dimethylaminomethyl-2,3,4,5-tetrahydro-5-oxo-6-phenylpyrido[3,2-f][1,4]oxazepine] | 186 to 188
28 | O=C1c2c(-c3ccccc3)cc(CNC3CC3)nc2OCCN1Cc1cc(C(F)(F)F)cc(C(F)(F)F)c1 [Example 46, 4-[3,5-Bis(trifluoromethyl)benzyl]-8-cyclopropylaminomethyl-2,3,4,5-tetrahydro-5-oxo-6-phenylpyrido[3,2-f][1,4]oxazepine] | 129 to 131
29 | CC(=O)NCc1cc(-c2ccccc2)c2c(n1)OCCN(Cc1cc(C(F)(F)F)cc(C(F)(F)F)c1)C2=O [Example 48, 8-Acetylaminomethyl-4-[3,5-bis(trifluoromethyl)benzyl]-2,3,4,5-tetrahydro-5-oxo-6-phenylpyrido[3,2-f][1,4]oxazepine] | 223 to 224
30 | CS(=O)(=O)NCc1cc(-c2ccccc2)c2c(n1)OCCN(Cc1cc(C(F)(F)F)cc(C(F)(F)F)c1)C2=O [Example 49, 4-[3,5-Bis(trifluoromethyl)benzyl]-2,3,4,5-tetrahydro-8-methanesulfonylaminomethyl-5-oxo-6-phenylpyrido[3,2-f][1,4]oxazepine] | 194 to 195
